Data on 13 compounds can be found in the NIST ThermoML archive (doi:10.1016/j.fluid.2008.02.008).

Molecules are shown by their SMILES. ± gives the expanded uncertainty stated by the source.

The conditions of data set [1]: 298.15 K, 101.33 kPa, Liquid; for mass density: Pycnometric method; for speed of sound: Sing-around technique in a fixed-path interferometer.
Data set [2] is described as follows: refractive index (Na D-line) (dimensionless). The settings on record: 298.15 K; 101.33 kPa; Liquid; Standard Abbe refractometry.

The term mass density denotes the mass of a sample divided by its volume. For orientation: speed of sound means the propagation velocity of pressure waves in the medium. By refractive index is commonly meant a measure of how strongly the sample bends light. On to `C1CCCCCCC1` [cyclooctane], for which, in data set [1], the mass density turned out to be 830.967 ± 0.82 kg/m3 and the speed of sound came out at 1387.8 ± 1.4 m/s. For the same compound, the refractive index in data set [2] was determined as 1.45624 ± 0.00075.

Take `CCCCCC` [hexane]: in data set [1], the mass density turned out to be 654.961 ± 0.62 kg/m3 and the speed of sound turned out to be 1077.6 ± 1.3 m/s. In data set [2], the refractive index is reported as 1.37237 ± 0.00075.

With `CCCC(C)C` [2-methylpentane], in data set [1], the mass density is recorded as 648.614 ± 0.62 kg/m3 and the speed of sound amounted to 1082.6 ± 1.3 m/s. In addition, the refractive index in data set [2] was determined as 1.36893 ± 0.00075.

On to `CCC(C)(C)C` [2,2-dimethylbutane], for which, in data set [1], the mass density is 644.43 ± 0.61 kg/m3 and the speed of sound is given as 999.69 ± 1.3 m/s. In data set [2], the refractive index was 1.36608 ± 0.00075.

For `CC(C)C(C)C` [2,3-dimethylbutane], in data set [1], the mass density came to 658.562 ± 1.3 kg/m3 and the speed of sound was determined as 1047.1 ± 3.1 m/s. Also, the refractive index in data set [2] is given as 1.37275 ± 0.00094.

Consider `CCCCCCCCCC` [decane], for which, in data set [1], the mass density turned out to be 726.176 ± 0.7 kg/m3 and the speed of sound is 1232.5 ± 1.4 m/s. Moreover, the refractive index in data set [2] is on record as 1.4099 ± 0.00075.

As for `CCCCCCCC` [octane], in data set [1], the mass density came to 698.638 ± 0.63 kg/m3 and the speed of sound is on record as 1170.4 ± 1.1 m/s. Moreover, the refractive index in data set [2] was 1.39538 ± 0.00073.

For `CCC(C)CC` [3-methylpentane], in data set [1], the mass density was 659.806 ± 0.63 kg/m3 and the speed of sound was found to be 1072.1 ± 1.3 m/s. Also, in data set [2], the refractive index is 1.37399 ± 0.00075.

Consider `C1CCCCC1` [cyclohexane], for which, in data set [1], the mass density was determined as 773.948 ± 0.69 kg/m3 and the speed of sound was 1254.9 ± 0.97 m/s. Further, the refractive index in data set [2] turned out to be 1.42378 ± 0.00072.

Consider `O` [water], for which the refractive index in data set [2] is given as 1.3325 ± 0.00075.

On to `CC(C)CC(C)(C)C` [2,2,4-trimethylpentane], for which, in data set [1], the mass density is 687.817 ± 0.62 kg/m3 and the speed of sound was found to be 1082.6 ± 1 m/s. The refractive index in data set [2] is given as 1.38917 ± 0.00073.

`CN1CCCC1=O` [N-methylpyrrolidone]: in data set [1], the mass density is listed as 1027.88 ± 1.1 kg/m3 and the speed of sound is reported as 1545 ± 1.5 m/s. Further, the refractive index in data set [2] stood at 1.46876 ± 0.00075.

On to `O=C1CCCN1C1CCCCC1` [N-cyclohexylpyrrolidinone], for which, in data set [1], the mass density amounted to 1025.56 ± 1.7 kg/m3 and the speed of sound came to 1555.7 ± 2.3 m/s. For the same compound, the refractive index in data set [2] is recorded as 1.4975 ± 0.00082.
